System: sepsis patients
Experiment: VANISH trial survival analysis, hydrocortisone vs placebo, by patient subtype classifier
Assay type: in vivo, human
Design: mortality reduction in the placebo group in comparison to the hydrocortisone group / Mortality rate: concentration or dose not given beside the values
Conditions: for Mortality reduction: Hydro vs Placebo; for hydro_alive / hydro_dead / mr: SS.B2 Model; for mr: 28-day mortality reduction hydro vs placebo; for Alive / Dead / Mortality rate / Survival rate: Hydro group
Text: The test expression data from each trial were normalized by the platform normalization matrix described above^13 so that the test data were more consistent with the training data. The classifiers (e.g., the Full Model, the SS Model, the S Model, and the P Model) were then applied to the normalized data such that the patients were classified into A, B, and C subtypes. […] Therefore, each sample in the target samples was normalized independently with the normalization matrix of the sample array platform.
Survival and mortality rates were calculated at day 28 because survival and mortality labels at other time points were not available. […] Binomial and Chi-squared with continuity correction tests were used to test for the significance of these differences.
In one example, previously identified subtypes of sepsis patients were used to tune the model to identify these type A and B patients. Two distinct sepsis response signatures (SRS1 and SRS2) were identified in five public studies (E-MTAB-4421, E-MTAB-4451, E-MTAB-5273, E-MTAB-5274, and E-MTAB-7581), where HumanHT-12 v4 BeadChip were used to generate the gene expression profiles of the patient samples. The processed data of those five studies were downloaded and processed using R programming language and software environment for statistical analysis (version 3.6.3). The Bioconductor annotation package, illuminaHumanv4.db (version 1.26.0), was used to annotate microarray probes and expression levels of genes were determined by each individual probe or mean of probes belonging to the same gene. In order to remove cohort biases, the Bioconductor package, limma (version 3.42.2), was used to remove batch effects. Using ss.b2 panel genes, subtype A, B, and C scores were calculated by geometric mean of up/down genes.
To build the classifier, we defined E-MTAB-4421, E-MTAB-4451, E-MTAB-5273, and E-MTAB-5274 as the training dataset and VANISH (E-MTAB-7581) as the testing dataset. We used features (subtype A, B, and C scores) and class labels (SRS1 vs SRS2) in the training dataset to build a machine-learned classifier based on support-vector machine (SVM) method. SVM is a supervised machine learning method for classification analysis. The algorithm finds a single or a set of hyperplanes that maximize the margin among subtype A, B, and C scores. In order to capture non-linear data, the kernel function was used. R package e1071 was used to build the SVM classifier with following parameters: method=“C-classification”, kernal=“radial”, gamma=0.1, and cost=10.
The accuracy of the classifiers was evaluated by Leave-One-Out (LOO) cross-validation over the training dataset. Also the classifier was applied to 117 controlled samples from VANISH trial.
In addition to the SVM-method, thresholds can be employed to scores in order to define A vs. B labels. […] Therefore we applied a heuristic threshold (threshold=0) to subtype A and B scores to classify SRS1-like and SRS2-like in VANISH: SRS2-like label was assigned to samples with subtype A score >0 and subtype B score <0 and SRS1-like label was assigned to the rest of samples.
Besides the heuristic threshold, we also derived the thresholds for subtype A and B scores using the training dataset. Same as the SVM method, we defined E-MTAB-4421, E-MTAB-4451, E-MTAB-5273, and E-MTAB-5274 as the training dataset and VANISH (E-MTAB-7581) as the testing dataset.

[1] = class A, A score cutoff 0.0000, B score cutoff 0.0000, accuracy in training set 0.74830, 76.07% of patients
[2] = class A, A score cutoff 0.0000, B score cutoff 0.0000, accuracy in training set 0.74830, 76.92% of patients
[3] = class A, A score cutoff 0.0000, B score cutoff 0.0000, accuracy in training set 0.75283, 76.92% of patients
[4] = class A, A score cutoff 0.0000, B score cutoff 0.0000, accuracy in training set 0.75283, 82.91% of patients
[5] = class A, A score cutoff 0.0000, B score cutoff 0.0000, accuracy in training set 0.76871, 62.39% of patients
[6] = class A, A score cutoff 0.0000, B score cutoff 0.0000, accuracy in training set 0.76871, 76.92% of patients
[7] = class A, A score cutoff −0.0406, B score cutoff 0.1067, accuracy in training set 0.79592, 58.12% of patients
[8] = class A, A score cutoff −0.0406, B score cutoff 0.1067, accuracy in training set 0.79592, 74.36% of patients
[9] = class A, A score cutoff −0.1277, B score cutoff 0.3630, accuracy in training set 0.83673, 60.68% of patients
[10] = class A, A score cutoff −0.1277, B score cutoff 0.3630, accuracy in training set 0.83673, 70.09% of patients
[11] = class A, A score cutoff −0.2664, B score cutoff 0.3179, accuracy in training set 0.82483, 58.12% of patients
[12] = class A, A score cutoff −0.2664, B score cutoff 0.3179, accuracy in training set 0.82483, 60.68% of patients
[13] = class B, A score cutoff 0.0000, B score cutoff 0.0000, accuracy in training set 0.74830, 23.08% of patients
[14] = class B, A score cutoff 0.0000, B score cutoff 0.0000, accuracy in training set 0.74830, 23.93% of patients
[15] = class B, A score cutoff 0.0000, B score cutoff 0.0000, accuracy in training set 0.75283, 17.09% of patients
[16] = class B, A score cutoff 0.0000, B score cutoff 0.0000, accuracy in training set 0.75283, 23.08% of patients
[17] = class B, A score cutoff 0.0000, B score cutoff 0.0000, accuracy in training set 0.76871, 23.08% of patients
[18] = class B, A score cutoff 0.0000, B score cutoff 0.0000, accuracy in training set 0.76871, 37.61% of patients
[19] = class B, A score cutoff −0.0406, B score cutoff 0.1067, accuracy in training set 0.79592, 25.64% of patients
[20] = class B, A score cutoff −0.0406, B score cutoff 0.1067, accuracy in training set 0.79592, 41.88% of patients
[21] = class B, A score cutoff −0.1277, B score cutoff 0.3630, accuracy in training set 0.83673, 29.91% of patients
[22] = class B, A score cutoff −0.2664, B score cutoff 0.3179, accuracy in training set 0.82483, 39.32% of patients
[23] = class B, A score cutoff −0.2664, B score cutoff 0.3179, accuracy in training set 0.82483, 41.88% of patients
[24] = VANISH trial, day 28, Full Model, Total
[25] = VANISH trial, day 28, Full Model, subtype A
[26] = VANISH trial, day 28, Full Model, subtype B

`C[C@]12CCC(=O)C=C1CC[C@@H]1[C@@H]2[C@@H](O)C[C@@]2(C)[C@H]1CC[C@]2(O)C(=O)CO` [Hydro, hydrocortisone] was tested, and the Mortality reduction (1-(lower/higher mortality rate), VANISH trial, day 28, Full Model, Total) was 33.0%, the Mortality reduction (1-(lower/higher mortality rate), VANISH trial, day 28, Full Model, subtype A) was 64.6% and the Mortality reduction (1-(lower/higher mortality rate), VANISH trial, day 28, Full Model, subtype B) was 35.2%. It also gave a Mortality reduction (1-(lower/higher mortality rate), VANISH trial, day 28, Full Model, subtype C) of 56.8%, a Mortality reduction (1-(lower/higher mortality rate), VANISH trial, day 28, Full Model, subtypes CA) of 60.6% and a Mortality reduction (1-(lower/higher mortality rate), VANISH trial, day 28, P Model, Total) of 33.0%. It also gave a Mortality reduction (1-(lower/higher mortality rate), VANISH trial, day 28, P Model, subtype A) of 77.6%, a Mortality reduction (1-(lower/higher mortality rate), VANISH trial, day 28, P Model, subtype B) of 9.7% and a Mortality reduction (1-(lower/higher mortality rate), VANISH trial, day 28, P Model, subtypes CA) of 56.5%. For the same molecule, the Mortality reduction (1-(lower/higher mortality rate), VANISH trial, day 28, SS Model, Total) was 33.0%, the Mortality reduction (1-(lower/higher mortality rate), VANISH trial, day 28, SS Model, subtype A) was 86.0% and the Mortality reduction (1-(lower/higher mortality rate), VANISH trial, day 28, SS Model, subtype B) was 20.0%. It also gave a Mortality reduction (1-(lower/higher mortality rate), VANISH trial, day 28, SS Model, subtype C) of 4.0%, a Mortality reduction (1-(lower/higher mortality rate), VANISH trial, day 28, SS Model, subtypes CA) of 42.2% and a Mortality reduction (1-(lower/higher mortality rate), VANISH trial, day 28, SS.B2 Model (SVM), Total) of 33.0%. The Mortality reduction (1-(lower/higher mortality rate), VANISH trial, day 28, SS.B2 Model (SVM), type A (SRS2-like)) was 77.3%, the Mortality reduction (1-(lower/higher mortality rate), VANISH trial, day 28, SS.B2 Model (SVM), type B (SRS1-like)) was 24.2% and the Mortality reduction (VANISH trial, day 28, S Model, subtype C) was “Hydro”. For the same molecule, the Mortality reduction (VANISH trial, day 28, S Model, subtypes CA) was “Hydro”, the hydro_alive [1] was 29 and the hydro_dead [1] was 13. The mr [1] was 3.8%, the hydro_alive [2] was 29 and the hydro_dead [2] was 13. For the same molecule, the mr [2] was 5.8%, the hydro_alive [3] was 29 and the hydro_dead [3] was 13. For the same molecule, the mr [3] was 5.8%, the hydro_alive [4] was 32 and the hydro_dead [4] was 15. It also gave a mr [4] of 12.3%, a hydro_alive [5] of 21 and a hydro_dead [5] of 12. It also gave a mr [5] of 3.8%, a hydro_alive [6] of 29 and a hydro_dead [6] of 13. It also gave a mr [6] of 5.8%, a hydro_alive [7] of 21 and a hydro_dead [7] of 12. For the same molecule, the mr [7] was 2.1%, the hydro_alive [8] was 29 and the hydro_dead [8] was 13. The mr [8] was 0.5%, the hydro_alive [9] was 25 and the hydro_dead [9] was 11. For the same molecule, the mr [9] was 17.7%, the hydro_alive [10] was 28 and the hydro_dead [10] was 13. The mr [10] was 0.0%, the hydro_alive [11] was 23 and the hydro_dead [11] was 11. The mr [11] was 15.4%, the hydro_alive [12] was 24 and the hydro_dead [12] was 12. The mr [12] was 10.3%, the hydro_alive [13] was 7 and the hydro_dead [13] was 9. The mr [13] was 83.8%, the hydro_alive [14] was 7 and the hydro_dead [14] was 9. The mr [14] was 85.2%, the hydro_alive [15] was 4 and the hydro_dead [15] was 7. It also gave a mr [15] of 82.5%, a hydro_alive [16] of 7 and a hydro_dead [16] of 9. For the same molecule, the mr [16] was 83.8%, the hydro_alive [17] was 7 and the hydro_dead [17] was 9. The mr [17] was 83.8%, the hydro_alive [18] was 15 and the hydro_dead [18] was 10. For the same molecule, the mr [18] was 86.8%, the hydro_alive [19] was 7 and the hydro_dead [19] was 9. For the same molecule, the mr [19] was 87.3%, the hydro_alive [20] was 15 and the hydro_dead [20] was 10. It also gave a mr [20] of 79.2%, a hydro_alive [21] of 8 and a hydro_dead [21] of 9. It also gave a mr [21] of 79.0%, a mr (class B, A score cutoff −0.1277, B score cutoff 0.3630, accuracy in training set 0.83673, 39.32% of patients) of 83.3% and a hydro_alive [22] of 12. The hydro_dead [22] was 10, the mr [22] was 81.7% and the hydro_alive [23] was 13. The hydro_dead [23] was 11, the mr [23] was 82.5% and the “mortality reduction in the placebo group in comparison to the hydrocortisone group” value (VANISH trial, 28-day, Type-A (SRS2-like) patients by SVM classifier on ss.b2 scores) was 75.5%. It also gave an Alive [24] of 36, a Dead [24] of 22 and a Mortality rate [24] of 37.9%. The Survival rate [24] was 62.1%, the Alive [25] was 9 and the Dead [25] was 8. It also gave a Mortality rate [25] of 47.1%, a Survival rate [25] of 52.9% and an Alive [26] of 16. The Dead [26] was 6, the Mortality rate [26] was 27.3% and the Survival rate [26] was 72.7%.
